Results on 19 compounds are retold here after patent US9394297B2, “Amides as pim inhibitors” (AMGEN INC., priority 2012, dated 2016).

Structures are written as SMILES. Where a name gives a salt, the structure may show the parent alone. Read-outs that look alike come from different tables or passages of the source.

One experiment concerns KMS-12-BM cell lines. Kind of experiment: KMS12 #2 flow cytometry assay (phospho-BAD Ser112). Type of experiment: cell-based. The settings on record: Homo sapiens, 110 min; KMS-12-BM cells, pBAD Ser112 by flow cytometry, 110 min with compound; read-out: KMS-12-Flow IC50 IP.
A further experiment addresses Pim-2 (Homo sapiens (Human), UniProt Q9P1W9). Kind of experiment: Pim-Mn enzyme assay (HTRF, 384-well), Pim-2. Type of experiment: biochemical. The settings on record: read-out: Pim-2-Mn IC50 IP. In general terms: In TR-FRET formats the signal depends on donor and acceptor labels being close together.
In a further experiment the target is Pim-1 (Homo sapiens (Human), UniProt P11309). Put plainly: Pim-Mn enzyme assay (HTRF, 384-well), Pim-1. It counts as biochemical. The note with it: read-out: Pim-1-Mn IC50 IP.
Setting [1] is: Pim-2 enzyme 0.5 pM, ATP 1.5 μM, BAD (S112) 0.5 μM, HTRF, 22-point curve.
[2] abbreviates: Pim-1 enzyme 5 pM, ATP 1.5 μM, BAD (S112) 0.5 μM, HTRF, 22-point curve.

Chain of Pim-2 (Q9P1W9 whole entry): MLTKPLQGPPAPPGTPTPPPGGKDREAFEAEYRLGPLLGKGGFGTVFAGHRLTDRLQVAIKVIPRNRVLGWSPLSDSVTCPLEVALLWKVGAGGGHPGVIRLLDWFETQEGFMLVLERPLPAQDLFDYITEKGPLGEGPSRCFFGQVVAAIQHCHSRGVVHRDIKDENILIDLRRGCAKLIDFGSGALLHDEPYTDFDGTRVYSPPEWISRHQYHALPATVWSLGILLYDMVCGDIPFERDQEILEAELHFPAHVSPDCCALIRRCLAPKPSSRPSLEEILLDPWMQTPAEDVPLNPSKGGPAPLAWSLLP
Chain of Pim-1 (P11309 whole entry): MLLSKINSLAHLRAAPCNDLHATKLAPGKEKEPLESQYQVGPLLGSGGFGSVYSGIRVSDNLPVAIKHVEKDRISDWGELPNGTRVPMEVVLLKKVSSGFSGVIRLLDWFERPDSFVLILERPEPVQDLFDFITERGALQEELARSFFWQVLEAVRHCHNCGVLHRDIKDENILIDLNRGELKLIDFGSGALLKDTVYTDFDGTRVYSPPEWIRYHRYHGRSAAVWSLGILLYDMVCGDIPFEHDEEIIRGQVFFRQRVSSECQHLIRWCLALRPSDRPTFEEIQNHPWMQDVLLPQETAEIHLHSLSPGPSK

In the case of `Cc1nc2ccc(F)c(-c3cc4c([nH]3)[C@@H]([C@H](C)O)NC4=O)c2nc1NC1CC1` [Example 353, (6S)-2-(3-(cyclopropylamino)-6-fluoro-2-methyl-5-quinoxalinyl)-6-((1S)-1-hydroxyethyl)-5,6-dihydropyrrolo[3,4-b]pyrrol-4(1H)-one], the results for the IC50 with KMS-12-BM cell lines, at Pim-2 (setting [1]) and at Pim-1 (setting [2]) were 109 nM, 2.3 nM and 2.26 nM, respectively.

As for `Cc1nc2ccc(F)c(-c3cc4c([nH]3)[C@H]([C@H](C)O)NC4=O)c2nc1NC1CC1` [Example 354, (R)-2-(3-(cyclopropylamino)-6-fluoro-2-methylquinoxalin-5-yl)-6-((S)-1-hydroxyethyl)-5,6-dihydropyrrolo[3,4-b]pyrrol-4(1H)-one], the IC50 was determined as 2310 nM in the experiment with KMS-12-BM cell lines, 16.4 nM on Pim-2 (setting [1]) and 7.08 nM on Pim-1 (setting [2]).

As to `Cc1nc2cccc(-c3cc4c([nH]3)C(COCc3ccccc3)NC4=O)c2nc1NC1(C)CC1` (stereo not drawn) [Example 355, 6-((benzyloxy)methyl)-2-(2-methyl-3-((1-methylcyclopropyl)amino)quinoxalin-5-yl)-5,6-dihydropyrrolo[3,4-b]pyrrol-4 (1H)-one], the figures for the IC50 in the experiment on KMS-12-BM cell lines, at Pim-2 (setting [1]) and at Pim-1 were 2430 nM, 1.86 nM and 1.79 nM, respectively.

As to `Cc1nc2cccc(-c3cc4c([nH]3)CNC4=O)c2nc1NC1(C)CC1` [Example 357, 2-(2-Methyl-3-((1-methylcyclopropyl)amino)quinoxalin-5-yl)-5,6-dihydropyrrolo[3,4-b]pyrrol-4(1H)-one], the figures for the IC50 in the experiment with KMS-12-BM cell lines, at Pim-2 (setting [1]) and on Pim-1 were 15 nM, 0.57 nM and 0.463 nM, respectively.

Turning to `Cc1nc2cccc(-c3[nH]c4c(c3Cl)C(=O)NC4)c2nc1NC1(C)CC1` [Example 358, 3-Chloro-2-(2-methyl-3-((1-methylcyclopropyl)amino)quinoxalin-5-yl)-5,6-dihydropyrrolo[3,4-b]pyrrol-4(1H)-one], the IC50 amounted to 49.6 nM in the experiment on KMS-12-BM cell lines, 0.0783 nM at Pim-2 (setting [1]) and 0.0339 nM on Pim-1 (setting [2]).

Turning to `Cc1nc2cccc(-c3cc4c([nH]3)C(CO)NC4=O)c2nc1NC1(C)CC1` (stereo not drawn) [Example 360, 6-(hydroxymethyl)-2-(2-methyl-3-((1-methylcyclopropyl)amino)quinoxalin-5-yl)-5,6-dihydropyrrolo[3,4-b]pyrrol-4 (1H)-one], the IC50 came out at 88.4 nM with KMS-12-BM cell lines, 1.37 nM on Pim-2 (setting [1]) and 1.42 nM at Pim-1 (setting [2]).

For the compound `Cc1nc2cccc(-c3cc4c([nH]3)[C@@H](CO)NC4=O)c2nc1NC1(C)CC1` [Example 361, (S)-6-(hydroxymethyl)-2-(2-methyl-3-((1-methylcyclopropyl)amino)quinoxalin-5-yl)-5,6-dihydropyrrolo[3,4-b]pyrrol-4 (1H)-one], the values for the IC50 with KMS-12-BM cell lines, at Pim-2 (setting [1]) and on Pim-1 (setting [2]) were 67.1 nM, 0.53 nM and 0.414 nM, respectively.

Turning to `Cc1nc2cccc(-c3cc4c([nH]3)[C@H](CO)NC4=O)c2nc1NC1(C)CC1` [Example 362, (R)-6-(hydroxymethyl)-2-(2-methyl-3-((1-methylcyclopropyl)amino)quinoxalin-5-yl)-5,6-dihydropyrrolo[3,4-b]pyrrol-4 (1H)-one], the results for the IC50 in the experiment with KMS-12-BM cell lines, on Pim-2 (setting [1]) and on Pim-1 (setting [2]) were 251 nM, 1.82 nM and 1.73 nM, respectively.

As to `Cc1nc2cccc(-c3cc4c([nH]3)CNC4=O)c2nc1NC1CC1` [Example 363, 2-(3-(cyclopropylamino)-2-methylquinoxalin-5-yl)-5,6-dihydropyrrolo[3,4-b]pyrrol-4(1H)-one], the values for the IC50 in the experiment on KMS-12-BM cell lines, on Pim-2 (setting [1]) and at Pim-1 (setting [2]) were 142 nM, 0.297 nM and 0.345 nM, respectively.

`Cc1nc2cccc(-c3cc4c([nH]3)[C@@H](CO)NC4=O)c2nc1NC1CC1` [Example 366, (S)-2-(3-(cyclopropylamino)-2-methylquinoxalin-5-yl)-6-(hydroxymethyl)-5,6-dihydropyrrolo[3,4-b]pyrrol-4(1H)-one]: the IC50 in the experiment with KMS-12-BM cell lines worked out at 79.4 nM; at Pim-2 (setting [1]) it was 0.177 nM; at Pim-1 (setting [2]), 0.192 nM.

As for `Cc1nc2cccc(-c3cc4c([nH]3)[C@H](CO)NC4=O)c2nc1NC1CC1` [Example 367, (R)-2-(3-(cyclopropylamino)-2-methylquinoxalin-5-yl)-6-(hydroxymethyl)-5,6-dihydropyrrolo[3,4-b]pyrrol-4(1H)-one], the IC50 is 429 nM with KMS-12-BM cell lines, 3.68 nM on Pim-2 (setting [1]) and 3.81 nM on Pim-1 (setting [2]).

Consider `Cc1nc2ccnc(-c3cc4c([nH]3)CCNC4=O)c2nc1NC(C)(C)C` [Example 368, 2-(3-(tert-butylamino)-2-methylpyrido[3,4-b]pyrazin-5-yl)-6,7-dihydro-1H-pyrrolo[3,2-c]pyridin-4(5H)-one], for which the values for the IC50 in the experiment on KMS-12-BM cell lines, on Pim-2 (setting [1]) and at Pim-1 (setting [2]) were 13300 nM, 33.7 nM and 30.8 nM, respectively.

As for `Cc1nc2ccc(F)c(-c3cc4c([nH]3)CCNC4=O)c2nc1NC1(C)CC1` [Example 369, 2-(6-fluoro-2-methyl-3-((1-methylcyclopropyl)amino)quinoxalin-5-yl)-6,7-dihydro-1H-pyrrolo[3,2-c]pyridin-4(5H)-one 2,2,2-trifluoroacetate], the IC50 in the experiment with KMS-12-BM cell lines was determined as 11.5 nM; at Pim-2 (setting [1]) it was 0.162 nM; on Pim-1 (setting [2]), 0.184 nM.

`Cc1nc2ccc(F)c(-c3cc4c([nH]3)CCNC4=O)c2nc1NC(C)(C)CO` [Example 370, 2-(6-fluoro-3-((1-hydroxy-2-methylpropan-2-yl)amino)-2-methylquinoxalin-5-yl)-6,7-dihydro-1H-pyrrolo[3,2-c]pyridin-4(5H)-one]: the IC50 was determined as 143 nM in the experiment with KMS-12-BM cell lines, 0.272 nM at Pim-2 (setting [1]) and 0.992 nM on Pim-1 (setting [2]).

As for `Cc1nc2ccc(F)c(-c3cc4c(=O)[nH]ccc4[nH]3)c2nc1NC(C)(C)C` [Example 371, 2-(3-(tert-butylamino)-6-fluoro-2-methylquinoxalin-5-yl)-1H-pyrrolo[3,2-c]pyridin-4(5H)-one 2,2,2-trifluoroacetate salt], the values for the IC50 in the experiment with KMS-12-BM cell lines, on Pim-2 and at Pim-1 were 148 nM, 0.0667 nM and 0.246 nM, respectively.

For `Cc1nc2ccc(F)c(-c3cc4c([nH]3)CCNC4=O)c2nc1NC(C)C` [Example 373, 2-(6-fluoro-3-(isopropylamino)-2-methylquinoxalin-5-yl)-6,7-dihydro-1H-pyrrolo[3,2-c]pyridin-4(5H)-one 2,2,2-trifluoroacetate], the figures for the IC50 with KMS-12-BM cell lines, on Pim-2 (setting [1]) and on Pim-1 (setting [2]) were 94.3 nM, 1.63 nM and 1.8 nM, respectively.

Take `CC(C)(C)Nc1ncc2cccc(-c3cc4c([nH]3)CCNC4=O)c2n1` [Example 374, 2-(2-(tert-butylamino)quinazolin-8-yl)-6,7-dihydro-1H-pyrrolo[3,2-c]pyridin-4(5H)-one]: the figures for the IC50 in the experiment with KMS-12-BM cell lines, at Pim-2 (setting [1]) and on Pim-1 (setting [2]) were 769 nM, 3.62 nM and 2.54 nM, respectively.

In the case of `CCC(C)(C)Nc1nc2c(-c3cc4c([nH]3)CCNC4=O)c(F)ccc2nc1C` [Example 375, 2-(6-fluoro-2-methyl-3-(tert-pentylamino)quinoxalin-5-yl)-6,7-dihydro-1H-pyrrolo[3,2-c]pyridin-4(5H)-one], the IC50 in the experiment with KMS-12-BM cell lines came out at 119 nM; at Pim-2 (setting [1]), 0.275 nM; on Pim-1 (setting [2]), 0.259 nM.

Turning to `Cc1nc2ccc(F)c(-c3cc4c([nH]3)CCNC4=O)c2nc1NC1(C)CCC1` [Example 376, 2-(6-fluoro-2-methyl-3-((1-methylcyclobutyl)amino)quinoxalin-5-yl)-6,7-dihydro-1H-pyrrolo[3,2-c]pyridin-4(5H)-one], the IC50 in the experiment on KMS-12-BM cell lines turned out to be 37.6 nM; at Pim-2 (setting [1]), 0.136 nM; at Pim-1 (setting [2]) it was 0.191 nM.

The IC50 is the point on the concentration scale where inhibition reaches its midpoint.
